In patent US20230011269A1, “PHARMACEUTICAL COMPOSITION COMPRISING A POTENT INHIBITOR OF URAT1” (Ardea Biosciences, Inc., priority 2015, published 2023):

Assays:
[1] = test system: serum urate; assay: Phase 1 single dose study, immediate release formulations: serum urate lowering; assay type: in vivo, human; details: mean maximum observed percentage change from pre-dose in serum urate concentrations (Emax)
Excerpt: A phase 1, randomized, double-blind, placebo-controlled study in healthy adult male volunteers evaluated single rising doses and the preliminary food effect for 2-((3-(4-cyanonaphthalen-1-yl)pyridine-4-yl)thio)-2-methylpropanoic acid at 6 dose groups with 8 subjects per group. […] Subjects in each dose group were randomized to receive a single dose of either 2-((3-(4-cyanonaphthalen-1-yl)pyridine-4-yl)thio)-2-methylpropanoic acid (6 subjects) or placebo (2 subjects). 2-((3-(4-cyanonaphthalen-1-yl)pyridine-4-yl)thio)-2-methylpropanoic acid was supplied as 1 mg oral solution, 2 mg oral solution, 5 mg tablets, or 20 mg tablets (depending on dose level).
The mean plasma concentration-time profiles for the IR formulations under fed and fasted conditions are depicted in FIGS. 3a and 3b. Absorption of 2-((3-(4-cyanonaphthalen-1-yl)pyridine-4-yl)thio)-2-methylpropanoic acid following a single oral dose under fasted conditions was rapid. […] When 2-((3-(4-cyanonaphthalen-1-yl)pyridine-4-yl)thio)-2-methylpropanoic acid was administered with food, slightly slower absorption and lower exposure were observed. […] Important pharmacodynamic parameters related to the serum Uric Acid lowering effects are shown in the following two tables: […]

[2] = Phase 1 study of MR formulations MR1-5: plasma pharmacokinetics; assay type: in vivo; details: male, human, oral, 5 mg, MR1-MR5 formulations, fasted and fed (Table 9), read-out: average terminal half-life
Method: A Phase 1, randomized study to evaluated the PK, PD, and safety and tolerability of 2-((3-(4-cyanonaphthalen-1-yl)pyridine-4-yl)thio)-2-methylpropanoic acid MR formulations in n=12 healthy adult male subjects in fasted and fed states. This study evaluated a total of 5 MR formulations at a 5 mg dose. The MR formulations tested are those described in Examples 2-6. Plasma samples for PK analysis were collected at the following time points: Pre-dose (within 30 minutes before dosing) and at 0.25, 0.5, 0.75, 1, 1.5, 2, 2.5, 3, 4, 5, 6, 8, 10, 12, 24, 30, 36, 48, 54, 60 and 72 hours post-dose. A summary of the mean plasma pharmacokinetic parameters following administration of the MR compositions of 2-((3-(4-cyanonaphthalen-1-yl)pyridine-4-yl)thio)-2-methylpropanoic acid are provided in Table 9.

[3] = Phase 1 crossover study MR4 4 x 2.5 mg vs 10 mg tablet, food effect: plasma pharmacokinetics; details: male, human, in vivo
Method: A Phase 1, randomized, open label, 4 way crossover PK and PD study in healthy adult male subjects designed to assess the relative bioavailability of 2-((3-(4-cyanonaphthalen-1-yl)pyridine-4-yl)thio)-2-methylpropanoic acid 2.5 mg MR tablets administered as a 10 mg dose (4×2.5 mg tablets) and a single 2-((3-(4-cyanonaphthalen-1-yl)pyridine-4-yl)thio)-2-methylpropanoic acid 10 mg MR tablet. The 10 mg MR tablet was prepared as described in Example 5a. This study also assessed the effect of a low fat and high fat meal on the PK and PD of 2-((3-(4-cyanonaphthalen-1-yl)pyridine-4-yl)thio)-2-methylpropanoic acid 10 mg MR tablets. Sixteen subjects were randomized to 1 of 4 treatment sequences. The treatments administered on Days 1 or 5 according to the randomization schedule were as follows: • Treatment A: 10 mg dose of 2-((3-(4-cyanonaphthalen-1-yl)pyridine-4-yl)thio)-2-methylpropanoic acid, administered as 4×2.5 mg ER tablets, in the fasted state. • Treatment B: 10 mg dose of 2-((3-(4-cyanonaphthalen-1-yl)pyridine-4-yl)thio)-2-methylpropanoic acid, administered as a single 10 mg ER tablet, in the fasted state. […]

CC(C)(Sc1ccncc1-c1ccc(C#N)c2ccccc12)C(=O)O [2-((3-(4-cyanonaphthalen-1-yl)pyridine-4-yl)thio)-2-methylpropanoic acid]
Mean % change in sUA from predose ([1]; 2 mg/Fasted): 8% | Mean % change in sUA from predose ([1]; 5 mg/Fasted): 15% | Mean % change in sUA from predose ([1]; 20 mg/Fasted): 43% | Mean % change in sUA from predose ([1]; 40 mg/Fasted): 58% | half-life [2]: 10 to 28 h | decrease of AUC∞ by a low-fat meal compared with the fasted state [3]: ~17% | decrease of Cmax by a low-fat meal compared with the fasted state [3]: approximately 21%
